Reference: US7279300B2, “Protozoan rhomboid proteins” (priority 2002, dated 2007)

Tests used:
[1] = system: Pf rhomboid-3; test: Pf rhomboid-3 cleavage of GFP-tagged Spitz co-expressed in COS cells (western blot); type: cell-based, Plasmodium falciparum; details: serum-free medium supplemented with inhibitor, substrate Spitz
Experimental: (§1) Plasmodium rhomboid activity was determined using published methods described in Urban et al Cell (2001) 107(2): 173-82 and WO02/093177. Briefly, Pf rhomboids-1 and -3 were co-expressed with GFP-tagged Spitz under control of a CMV promoter; as follows; COS cells were grown in DMEM medium (supplemented with 10% foetal calf serum), and transfected with FuGENE 6 Transfection Reagent (Roche). Cells were co-transfected in 35 mm culture wells with 25-250 ng of (a) rhomboid construct comprising the Pf-rhomboid-1 or -3 coding sequence inserted into the vector pcDNA 3.1+ (Invitrogen), and (b) substrate construct comprising the GFP-Spitz coding sequence inserted into pcDNA 3.1+ (Invitrogen). Empty plasmid was used to bring the total DNA to 1 μg per well. Construct (b) was transfected into COS cells in the absence of construct (a) as a control for endogenous cleavage of the substrate. 24-30 hours post-transfection, the medium was replaced with serum-free medium; this was harvested 24 hours later and cells were lysed in SDS-sample buffer. For some experiments, the serum-free medium was supplemented with the metalloprotease inhibitor batimastat (British Biotech) or ilomostat (Calbiochem) to minimize endogenous substrate cleavage in the assay. For inhibitor assays, a test compound may be included in the serum-free medium. […]

[2] = system: Pf rhomboid-1; test: Pf rhomboid-1 cleavage of GFP-tagged Spitz co-expressed in COS cells (western blot); type: cell-based, Plasmodium falciparum; details: serum-free medium supplemented with inhibitor, substrate Spitz
Experimental: as §1

## CNC(=O)[C@H](Cc1ccccc1)NC(=O)[C@H](CC(C)C)[C@H](CSc1cccs1)C(=O)NO [batimastat]
[1]
  inhibition of Pf rhomboid-3 cleavage of Spitz: not inhibited
[2]
  inhibition of Pf rhomboid-1 cleavage of Spitz: not inhibited
